Experimental data taken from PubChem BioAssay AID2060332 (Molecular Pharmacology Branch, DTP, NCI, 2025).

System: LG0567-F671-PDC multi-cell spheroid viability
Test: Anticancer human tumor LG0567-F671-PDC patient-derived lung adenocarcinoma cell line growth inhibition [IpAb]
Conditions: for IC50: curve of first compound; for viability, T/C: stronger effect = lower value; active = viability on the fitted dose curve at most 10% of control; inactive = the rest
Source text: Combinatorial screen of targeted agents with ipatasertib and abemaciclib in multi-cell type tumor spheroids
A high-throughput screen of multi-cell type tumor spheroids was designed to identify active combinations of targeted small molecules and ipatasertib or abemaciclib. Complex spheroids include a stromal component modeled by human endothelial cells (HUVEC) and fibroblasts modeled by human mesenchymal stem cells (MSCs). The concentration ranges selected for each drug and investigational agent were based upon clinically achievable concentrations if the clinical Cmax of the agent was known.
Compounds. The drugs and investigational agents: ipatasertib (NSC767898), abemaciclib(NSC768073), selumetinib (NSC741078), trametinib (758246), adavosertib (NSC754352), everolimus (NSC733504), sapanisertib (NSC764658), vemurafenib (NSC761431), venetoclax (NSC766270), copanlisib (NSC809693), apelisib (NSC765974), palbociblib (NSC758247), vemurafenib (NSC761431), dabrafenib (NSC764134), ravoxertinib (NSC781343), BMS-387032 (NSC767048), sotorasib (NSC818433), talazoparib (NSC767125) and afursertib (NSC778305), were obtained from the National Cancer Institute (NCI) Developmental Therapeutics Program Chemical Repository. The FDA-approved anticancer drug set is available from the NCI Developmental Therapeutics Program. […] The stock solutions were prepared in dimethyl sulfoxide (DMSO, Sigma-Aldrich, St. Louis, MO, cat. D2650) at 800-fold the tested concentration and stored at -70 degrees C prior to their use. All drugs and investigational agents were tested over a range starting from a high concentration at or near the clinical Cmax and decreasing in half-log increments. If the clinical Cmax for an agent had not been determined, the highest concentration tested was 10 microM.
NCI60 Cell Culture. NCI60 cell lines were obtained from the NCI Developmental Therapeutics Program Tumor Repository. For each lot of cells, the Repository performed Applied Biosystems AmpFLSTR Identifiler testing with PCR amplification to confirm consistency with the published Identifier STR profile for each cell line. Cells were kept in continuous culture for no more than 20 passages. The optimal seeding densities for each of the cell lines at each time point assessed were determined prior to performing the concentration response studies. Briefly, the NCI60 human tumor lines were grown as monolayers in RPMI 1640 medium supplemented with 10% FBS and 2 mmol/L L-glutamine.
An additional 9 lines were from the NCI60 cell line panel including MDA-MB-231 breast carcinoma, MDA-MB-468 breast carcinoma, MCF7 breast carcinoma, Hs578T breast carcinoma, MALME-3M melanoma, SK-MEL-2 melanoma, SK-OV-3 ovarian carcinoma, DU-145 prostate carcinoma, PC-3 prostate carcinoma, all cell lines along with major genetic alterations are listed on Table 2. Pooled donor human umbilical vein endothelial cells (HUVEC, Lonza, cat. CC-2519) and human mesenchymal stem cells (hMSC, Lonza, cat. PT-2501) were purchased from Lonza (Walkersville, MD).
PDMR cell lines were grown in complete medium (DC medium): Dulbecco's modified Eagle's medium (DMEM)/F12 supplemented with 5% fetal bovine serum (FBS), 2 mM L-glutamine, 100 U/mL penicillin and 100 µg/ml streptomycin, 0.4 µg/ml hydrocortisone, 10 ng/ml epidermal growth factor (EGF) recombinant human protein, 24 µg/mL adenine, and 0.1 mg/mL primocin. During culture from frozen stock vials, PDMR cells were cultured in the same medium containing 10 µM Y-27632 (see Table 3). The PDCs were cultured in complete DMEM/F12 media without 10 microM Y-27632 dihydrochloride for at least two passages prior to the screen. The pooled donor HUVEC and hMSC were cultured in endothelial cell growth medium 2 (PromoCell, Heidelberg, Germany, cat. C-22011) and mesenchymal stem cell growth medium 2 (PromoCell, cat. C-28009), respectively. For all experiments, HUVEC and hMSC were used at passages </=5.
[…]

[1] = second compound 0.1 µM, first compound 0.0316 µM
[2] = second compound 0.1 µM, first compound 0.1 µM
[3] = second compound 0.1 µM, first compound 0.316 µM
[4] = second compound 0.1 µM, first compound 1 µM
[5] = second compound 0.1 µM, first compound 3.16 µM
[6] = second compound 0.1 µM, first compound 10 µM
[7] = second compound 0.316 µM, first compound 0.0316 µM
[8] = second compound 0.316 µM, first compound 0.1 µM
[9] = second compound 0.316 µM, first compound 0.316 µM
[10] = second compound 0.316 µM, first compound 1 µM
[11] = second compound 0.316 µM, first compound 3.16 µM
[12] = second compound 0.316 µM, first compound 10 µM
[13] = second compound 1 µM, first compound 0.0316 µM
[14] = second compound 1 µM, first compound 0.1 µM
[15] = second compound 1 µM, first compound 0.316 µM
[16] = second compound 1 µM, first compound 1 µM
[17] = second compound 1 µM, first compound 3.16 µM
[18] = second compound 1 µM, first compound 10 µM
[19] = second compound 3.16 µM, first compound 0.0316 µM
[20] = second compound 3.16 µM, first compound 0.1 µM
[21] = second compound 3.16 µM, first compound 0.316 µM
[22] = second compound 3.16 µM, first compound 1 µM
[23] = second compound 3.16 µM, first compound 3.16 µM
[24] = second compound 3.16 µM, first compound 10 µM
[25] = second compound 10 µM, first compound 0.0316 µM
[26] = second compound 10 µM, first compound 0.1 µM
[27] = second compound 10 µM, first compound 0.316 µM
[28] = second compound 10 µM, first compound 1 µM
[29] = second compound 10 µM, first compound 3.16 µM
[30] = second compound 10 µM, first compound 10 µM
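Also: viability read after 7 days of drug exposure.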
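For viability, T/C in this document: 100% = DMSO vehicle control luminescence.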

C=CCn1c(=O)c2cnc(Nc3ccc(N4CCN(C)CC4)cc3)nc2n1-c1cccc(C(C)(C)O)n1 + CC(C)NCC(C(=O)N1CCN(c2ncnc3c2C(C)CC3O)CC1)c1ccc(Cl)cc1
1050 nM: IC50 (second compound 3.16 µM)
inactive: viability, T/C [1] 80.7% | viability, T/C [2] 78.5% | viability, T/C [3] 52.1% | viability, T/C [4] 44.6% | viability, T/C [5] 34.6% | viability, T/C [6] 33.4% | viability, T/C [7] 75% | viability, T/C [8] 73.1% | viability, T/C [9] 53.3% | viability, T/C [10] 50.5% | viability, T/C [11] 36.2% | viability, T/C [12] 23.6% | viability, T/C [13] 69.6% | viability, T/C [14] 84.6% | viability, T/C [15] 65.2% | viability, T/C [16] 37.8% | viability, T/C [17] 37.6% | viability, T/C [18] 20.2% | viability, T/C [19] 79.1% | viability, T/C [20] 83% | viability, T/C [21] 59.1% | viability, T/C [22] 50.8% | viability, T/C [23] 36.9% | viability, T/C [24] 19.5% | viability, T/C [25] 72.8% | viability, T/C [26] 76% | viability, T/C [27] 51.7% | viability, T/C [28] 49.1% | viability, T/C [29] 31.9% | viability, T/C [30] 26.8%
803 nM: IC50 (second compound 0.316 µM)
646 nM: IC50 (second compound 10 µM)
626 nM: IC50 (second compound 1 µM)
479 nM: IC50 (second compound 0.1 µM)

CC(C)n1nc(-c2ccc3oc(N)nc3c2)c2c(N)ncnc21 + CC(C)NCC(C(=O)N1CCN(c2ncnc3c2C(C)CC3O)CC1)c1ccc(Cl)cc1
11.7 nM: IC50 (second compound 10 µM)
80.4 nM: IC50 (second compound 0.1 µM)
27.1 nM: IC50 (second compound 3.16 µM)
> 100 nM: IC50 (second compound 0.316 µM) | IC50 (second compound 1 µM)
inactive: viability, T/C (second compound 0.1 µM, first compound 0.000316 µM) 89% | viability, T/C (second compound 0.1 µM, first compound 0.001 µM) 99.4% | viability, T/C (second compound 0.1 µM, first compound 0.00316 µM) 76.8% | viability, T/C (second compound 0.1 µM, first compound 0.01 µM) 65.8% | viability, T/C [1] 59.1% | viability, T/C [2] 46.4% | viability, T/C (second compound 0.316 µM, first compound 0.000316 µM) 76% | viability, T/C (second compound 0.316 µM, first compound 0.001 µM) 76% | viability, T/C (second compound 0.316 µM, first compound 0.00316 µM) 87% | viability, T/C (second compound 0.316 µM, first compound 0.01 µM) 66.5% | viability, T/C [7] 50.4% | viability, T/C [8] 59.5% | viability, T/C (second compound 1 µM, first compound 0.000316 µM) 70.3% | viability, T/C (second compound 1 µM, first compound 0.001 µM) 81.3% | viability, T/C (second compound 1 µM, first compound 0.00316 µM) 76.6% | viability, T/C (second compound 1 µM, first compound 0.01 µM) 57% | viability, T/C [13] 57.9% | viability, T/C [14] 46.4% | viability, T/C (second compound 3.16 µM, first compound 0.000316 µM) 97.2% | viability, T/C (second compound 3.16 µM, first compound 0.001 µM) 71.7% | viability, T/C (second compound 3.16 µM, first compound 0.00316 µM) 73% | viability, T/C (second compound 3.16 µM, first compound 0.01 µM) 62.7% | viability, T/C [19] 45.5% | viability, T/C [20] 39.9% | viability, T/C (second compound 10 µM, first compound 0.000316 µM) 72.9% | viability, T/C (second compound 10 µM, first compound 0.001 µM) 72.2% | viability, T/C (second compound 10 µM, first compound 0.00316 µM) 63.9% | viability, T/C (second compound 10 µM, first compound 0.01 µM) 53.8% | viability, T/C [25] 37% | viability, T/C [26] 43%

C=CC(=O)N1CCN(c2nc(=O)n(-c3c(C)ccnc3C(C)C)c3nc(-c4c(O)cccc4F)c(F)cc23)C(C)C1 (stereo not given) + CC(C)NCC(C(=O)N1CCN(c2ncnc3c2C(C)CC3O)CC1)c1ccc(Cl)cc1
< 31.6 nM: IC50 (second compound 0.1 µM) | IC50 (second compound 0.316 µM) | IC50 (second compound 1 µM) | IC50 (second compound 3.16 µM) | IC50 (second compound 10 µM)
inactive: viability, T/C [1] 20% | viability, T/C [2] 15.1% | viability, T/C [3] 15.1% | viability, T/C [4] 14.7% | viability, T/C [5] 15.9% | viability, T/C [6] 16.6% | viability, T/C [7] 12.9% | viability, T/C [8] 16.1% | viability, T/C [9] 15.5% | viability, T/C [10] 14.8% | viability, T/C [11] 8.74% | viability, T/C [12] 9.44% | viability, T/C [13] 13.8% | viability, T/C [14] 13.9% | viability, T/C [15] 13.1% | viability, T/C [16] 10.5% | viability, T/C [19] 14.9% | viability, T/C [20] 15.8% | viability, T/C [21] 11.4% | viability, T/C [22] 10.6% | viability, T/C [23] 10.4% | viability, T/C [24] 10.6% | viability, T/C [25] 13.5% | viability, T/C [26] 11% | viability, T/C [27] 10.1% | viability, T/C [28] 10% | viability, T/C [29] 12.5% | viability, T/C [30] 9.01%
active: viability, T/C [17] 10.2% | viability, T/C [18] 8.39%
